What was measured:
Streptavidin = Streptavidin (Streptomyces avidinii, UniProt P22629); details: binding to streptavidin; cited from earlier work
MCF7:PIK3CA-WT cells = experiment: CyQuant proliferation assay, alpelisib dose response, PIK3CA-WT cells; format: cell-based; details: estrogen deprived conditions, 5 days
Description: (§1) Dose response curves are shown for three different MCF7 sublines (MCF7:WS8, MCF7:PIK3CA-mutant, MCF7:PIK3CA-WT) in response to treatment with fulvestrant or alpelisib. Proliferation was determined by a CyQuant genomic DNA quantification. Individual points represent the mean of n=8 replicate wells. Curves represent the least-squares fit of the Hill equation. Error bands represent the 95% confidence interval of the fit, as determined using the gradient method.
(§2) The MCF7 cell line harbors two activating E545K mutant PIK3CA alleles. To evaluate the relationship between PIK3CA mutation, AREG expression, and drug resistance, the MCF7 parental line was compared to a previously published isogenic MCF7 line with a wildtype (WT) PIK3CA knock in, which has both mutant alleles corrected (see Beaver et al., Clin. Cancer Res. 19:5413-5422, 2013). […] Then, under estrogen deprived conditions, the growth of MCF7 PIK3CA mutant or MCF7:PIK3CA-WT cells was assessed over 5 days in the presence of varying doses of alpelisib (a PI3K inhibitor) (FIGS. 9B and 9C). Proliferation was quantified by an end-point genomic DNA quantification (CyQuant), and then the concentration-response curve was fit to a Hill equation to extract the IC50 and the asymptotic proliferation in the limit of infinite drug […].

MCF7:PIK3CA-mutant cells = experiment: CyQuant proliferation assay, alpelisib dose response, PIK3CA mutant cells; format: cell-based; details: estrogen deprived conditions, 5 days
Description: as §1, §2

HCC70 spheroids [1] = experiment: Streptavidin dot blot of lysates from labeled 3D cultures; format: cell-based; details: for streptavidin binding signal, hydrogels containing HCC70 cells versus cell-free EHS matrix: fully embedded EHS matrix hydrogel (7-10 mg/mL protein)
Description: To evaluate the extent to which the streptavidin signal produced was due to reactions with azide-labeled proteins, HCC70 breast cancer cell spheroids were cultured in 2% EHS matrix suspension culture with or without azidohomoalanine.
To assess the specificity of the labeling, streptavidin dot blots were performed with homogeneous lysates prepared from each of the labeling conditions. Additionally, unlabeled lysate was included to account for non-specific binding of the streptavidin reagent, itself. […] As a non-specific reaction control, the same labeling conditions were evaluated in “empty” EHS matrix hydrogels, which contained no cells. […] After labeling and washing the samples, homogeneous lysates of all conditions were prepared.
Generation of fully embedded 3D HCC70 cultures. HCC70 spheroids were first seeded in suspension in 2% EHS matrix (following one passage in 3D suspension culture). After allowing spheroids to form for 24 hours, the spheroids were pelleted, the supernatant was aspirated, and the spheroids were directly resuspended in ice-cold EHS matrix (undiluted from the manufacturer's preparation at a typical concentration of 7-10 mg/mL). Resuspension was achieved by slow pipetting up and down forty times on ice with pipette tips that were pre-chilled at −20° C. Next, EHS matrix “domes” were created by pipetting thirty microliters of the EHS matrix/spheroid suspension directly into the center of the well of a 24-well plate with a No. 1.5 polymer coverglass bottom. The plate was flipped upside down to prevent spheroids from settling onto the coverglass, and the plate was incubated at 37° C., 5% CO2, for 1 hour to allow the EHS matrix to form an elastic hydrogel. The domes were then covered with complete cell culture media (1 mL per well) and cultured at 37° C., 5% CO2.
Streptavidin dot blot analysis. Spheroid lysates were prepared as described above. […]
MCF7:WS8 cells [2] = experiment: Click labeling and PEA (Olink Explore 3072) differential intercellular protein expression; format: cell-based
Description: PEA was used to quantify protein abundance in MCF7:WS8 cells treated with estradiol (1 nM) and fulvestrant concomitantly or with estradiol (1 nM) alone. Proteins from cells treated with or without fulvestrant were ranked by a log 2-fold change in abundance and by a false-discovery rate and identified.
The eluted protein fraction was then subjected to proximity extension assay-based quantification using the Olink® Explore protocol to quantify the abundance of proteins in a 3072-plex panel.
Intercellular protein discovery by the proximity extension assay and NPX normalized protein abundance calculation. Proteins were measured using the Olink® Explore 3072 panel (Olink Proteomics AB, Uppsala, Sweden) according to the manufacturer's instructions. For each experimental replicate, eighty microliters of elution solution (representing labeled proteins from eight hundred thousand cells), was used directly for the Olink Explore protocol.
MCF7:WS8 cells [3] = experiment: CyQuant genomic DNA proliferation assay, fulvestrant dose response; format: cell-based; details: estradiol 1 nM; for IC50: Hill equation fit
Description: as §1
Given that AREG induction by estradiol supports estradiol-dependent proliferation, the expectation was that constitutive overexpression of AREG would confer resistance to drugs that inhibit estrogen signaling (e.g., fulvestrant). […] The proliferation of each cell line was evaluated in the presence of estradiol (1 nM) and varying concentrations of fulvestrant using a genomic DNA quantification assay (CyQuant). The Hill equation was then used to determine the IC50 of each cell line following fulvestrant treatment (FIG. 9A). […] Therefore, targeting AREG signaling may alleviate endocrine therapy resistance.

HCC70 spheroids [4] = experiment: Confocal fluorescence microscopy of probe labeling in 3D spheroid culture with 2% EHS matrix; format: cell-based; details: azidohomoalanine 24 hours, probe 30 minutes at 37 degrees Celsius, streptavidin Alexa-Fluor 488
Description: To do this, 3D organotypic suspension cultures of the HCC70 breast cancer cell line were generated in the presence of EHS matrix. Next, spheroids were labeled with 500 pM azidohomoalanine for 24 hours, and after washing excess reagent, incubated the spheroids with each of the heterobifunctional probes (three hundred micromolar concentration, 30 minutes at 37 degrees Celsius). […] The samples were also counterstained with DAPI and Phalloidin to visualize the nuclei and the cell surface (F-actin in the HCC70 cells is subcortically localized near the membrane). Lastly, confocal fluorescence microscopy was used to qualitatively assess the spatial distribution of streptavidin labeling in all conditions (FIG. 2).
Azidohomoalanine labeling of 3D HCC70 cultures in 2% EHS matrix. 3D suspension cultures of HCC70 cells in 2% EHS matrix were generated from 2D monolayer culture (as described above), dissociated once, and then plated in fresh 2% EHS matrix. After 48 hours of culture, spheroids were washed three times to remove excess methionine by centrifuging at 200×g for 3 minutes, aspirating the supernatant and resuspending in PBS (with calcium and magnesium). Azidohomoalanine containing media was freshly prepared by diluting a 500 mM azidohomoalanine DMSO stock solution 1,000-fold in methionine reduced 2% EHS matrix suspension media. The washed spheroids were resuspended in azidohomoalanine-containing 2% EHS matrix suspension media (in the same volume as the original suspension), plated in 6-well ultra-low attachment plates, and incubated in TC incubator at 37° C., 5% CO2 for 24 hours.
Spheroids were cultured for 24 hours in the presence of azidohomoalanine to allow the azidohomoalanine to be incorporated into newly synthesized proteins at methionine residues. After 24 hours, spheroids were washed three times with PBS (containing calcium and magnesium) to remove unincorporated azidohomoalanine by centrifugation at 200×g for 1 minute, aspiration of the supernatant, and resuspension in the PBS wash buffer. […]

TAMR cells = experiment: Click labeling and PEA (Olink Explore 3072) differential intercellular protein expression; format: cell-based; details: tamoxifen (100 nM) + estradiol versus estradiol, FDR<0.05, therapy resistant cells
Description: Three-dimensional cultures of MCF7:WS8 cells and TAMR cells were generated in 2% EHS matrix suspension. Spheroids were treated with either 1) estradiol (10 nM) or 2) estradiol (10 nM) and tamoxifen (100 nM). […] The eluted protein fraction was then subjected to proximity extension assay-based quantification using the Olink® Explore protocol to quantify the abundance of proteins in a 3072-plex panel.
First, a tamoxifen-induced protein signature was developed for each line by comparing how each cell line responded to tamoxifen treatment. Next, the log 2-fold change enrichment was quantified for cells treated with or without tamoxifen.
MCF7 cells were seeded, as described above, in estrogen-depleted 2% EHS matrix suspension culture (containing charcoal-stripped FBS and phenol red free) for 24 hours to create estrogen-starved spheroids. […]
Proteins were measured using the Olink® Explore 3072 panel (Olink Proteomics AB, Uppsala, Sweden) according to the manufacturer's instructions. […] Libraries were subjected to a bead-based purification and quality was assessed using an Agilent 2100 bioanalyzer (Agilent Technologies, Palo Alto, CA). […]

[5] = tested on: Laminin B1, Laminin C1, and Nidogen; experiment: LC/MS label-free quantification of EHS matrix proteins in eluted fraction versus starting lysate; details: HCC70 spheroids, 2% EHS matrix, streptavidin enrichment and elution with free biotin
Description: Compositions of the EHS matrix vary from lot-to-lot, but three of the most abundant proteins EHS matrix preparations are known to be Laminin B1, Laminin C1, and Nidogen. LC/MS proteomics were performed on crude lysates prepared from organotypic cultures of HCC70 spheroids in 2% EHS matrix. As expected, the most abundant proteins in these crude lysates were the EHS matrix proteins, Laminin B1, Laminin Cl, and Nidogen (FIG. 5A). This was true regardless of whether the peptide search was performed against the human or mouse proteome, due to high sequence homology of these proteins between both species. […] Protein concentration of crude lysates was determined using a Pierce BCA assay kit (Thermo Fisher Scientific #23225) according to the manufacturer's protocol. […] Desalted samples were brought up in 2% acetonitrile in 0.1% formic acid and were analyzed by LC/ESI MS/MS with a Thermo Scientific Easy-nLC 1000 (Thermo Scientific, Waltham, MA) nano HPLC system coupled to a tribrid Orbitrap Fusion (Thermo Scientific, Waltham, MA) mass spectrometer. […] Label-free quantification data analysis of LC/MS samples. […] In the specific case in which the abundance of EHS matrix proteins was evaluated, a search was also performed against the Uniprot Mus musculus files (however, due to sequence homology the same conclusions were drawn regardless of whether the Mus musculus database was included in the search). […]

Claudin 7 = experiment: Streptavidin bead capture, elution and Claudin 7 western blot; design: species or system human; details: HCC70 spheroids, mild competitive elution with free biotin versus denaturing elution
Description: After lysing the spheroids, biotinylated or desthiobiotinylated proteins were captured using streptavidin-functionalized magnetic polystyrene beads. The unbound fraction was also collected to evaluate the capture efficiency. […] This competitive elution was performed in two sequential incubations at 37° C. and 4° C. The recovery of Claudin 7 was used to evaluate the efficiency with which full-length intercellular proteins were released from the magnetic bead. Claudin 7 is a well-known tight-junction protein associated with intercellular adhesions (FIG. 4A), and it is localized to the pericellular zones in HCC70 spheroids (FIG. 4D). Next, western blots against Claudin 7 were performed in the eluted fraction from the streptavidin pull-down, and the signal intensity of Claudin 7 from the 15 μg of HCC70 spheroid starting lysate was evaluated. […] Streptavidin magnetic bead enrichment. […] For every 100 μL of sample, 200 μL of the 10 mg/mL magnetic bead suspension were used. […] Next a magnetic bead pellet was prepared by separating the beads on a magnetic stand and removing the supernatant. […] Western blot and dot blot quantification. Western blot quantification was performed using ImageJ. […] Integrated fluorescence intensity was calculated using the “Measure” tool, and the background-corrected integrated fluorescence intensity was computed for each band.

[6] = tested on: breast epithelial MCF10A cells; details: 2D culture, exogenous media supplement; cited from earlier work

Sequence of Streptavidin (P22629 25-183, species assumed): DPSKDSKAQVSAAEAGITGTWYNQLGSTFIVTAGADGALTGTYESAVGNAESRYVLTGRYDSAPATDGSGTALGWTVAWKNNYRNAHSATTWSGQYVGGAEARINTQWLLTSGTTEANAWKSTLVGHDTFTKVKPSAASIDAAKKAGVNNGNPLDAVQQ

Question: For `C[C@@H]1NC(=O)N[C@@H]1CCCCCC(=O)O` [Desthiobiotin], which Kd (Streptavidin) is on record?
Answer: 0.66 nM

Question: What about the Koff (Streptavidin) of the same molecule?
Answer: 0.018 s⁻¹

Question: What about the Kon (Streptavidin) of the same molecule?
Answer: 2.7e7 1/M 1/s

Question: With `Cc1nc(NC(=O)N2CCC[C@H]2C(N)=O)sc1-c1ccnc(C(C)(C)C(F)(F)F)c1` [alpelisib] as the molecule, how does the “effect of AREG overexpression on alpelisib response” value (MCF7:PIK3CA-WT cells) read?
Answer: no effect

Question: And the “increase in IC50 by AREG overexpression” value (MCF7:PIK3CA-mutant cells)?
Answer: 4 fold

Question: Which “streptavidin binding versus non-labeled azidohomoalanine controls” value (HCC70 spheroids [1]; 2% EHS matrix suspension, DBCO-PEG4-Desthiobiotin labeling) does the source give for `[N-]=[N+]=NCC[C@H](N)C(=O)O` [azidohomoalanine] here?
Answer: 10 fold

Question: With `C[C@]12CC[C@@H]3c4ccc(O)cc4CC[C@H]3[C@@H]1CC[C@@H]2O` [estradiol] as the molecule, how does the “number of proteins upregulated by at least 2-fold” value (MCF7:WS8 cells [2]; estradiol versus estrogen-deprived controls, FDR<0.05) read?
Answer: at least 188 proteins

Question: For `C[C@]12CC[C@@H]3c4ccc(O)cc4C[C@@H](CCCCCCCCC[S+]([O-])CCCC(F)(F)C(F)(F)F)[C@H]3[C@@H]1CC[C@@H]2O` (stereo partly drawn) [fulvestrant], which “most significantly upregulated intercellular protein” value (MCF7:WS8 cells [2]; estradiol (1 nM) + fulvestrant versus estradiol (1 nM) alone, FDR<0.05) is on record?
Answer: ITGB6

Question: What about the IC50 (MCF7:WS8 cells [3]; MCF7:WS8, AREG overexpression line) of the same molecule?
Answer: 255 nM

Question: What about the IC50 (MCF7:WS8 cells [3]; MCF7:WS8, control line (ORF stuffer)) of the same molecule?
Answer: 34 nM

Question: What about the “increase in IC50, AREG overexpression versus control” value (MCF7:WS8 cells [3]) of the same molecule?
Answer: 7.5 fold

Question: With `O=C1N[C@H]2[C@H](CS[C@H]2CCCCC(=O)ON2C(=O)CC(S(=O)(=O)[O-])C2=O)N1.[Na+]` (stereo partly drawn) [sulfo-NHS-biotin] as the molecule, how does the “labeling of the pericellular zone / intercellular spaces” value (HCC70 spheroids [4]) read?
Answer: unable to diffuse into intercellular zones of the organoids

Question: What about the “streptavidin binding signal, hydrogels containing HCC70 cells versus cell-free EHS matrix” value (HCC70 spheroids [1]) of the same molecule?
Answer: equal

Question: Which “number of proteins upregulated at least 2-fold in response to tamoxifen” value (TAMR cells) does the source give for `CC/C(=C(\c1ccccc1)c1ccc(OCCN(C)C)cc1)c1ccccc1` [tamoxifen] here?
Answer: forty-three

Question: And the “number of proteins upregulated at least 2-fold in response to tamoxifen” value (MCF7:WS8 cells [2]; tamoxifen (100 nM) + estradiol versus estradiol, FDR<0.05, therapy sensitive cells)?
Answer: Thirty

Question: Which “lower normalized abundance of Laminin B1, Laminin C1 and Nidogen versus starting lysates” value [5] does the source give for DBCO-PEG4-Desthiobiotin here?
Answer: over 10 fold

Question: And the “recovery of Claudin 7 compared to the DBCO-sulfo-biotin samples” value (Claudin 7)?
Answer: 10 fold

Question: And the “labeling of the pericellular zone / intercellular spaces” value (HCC70 spheroids [4])?
Answer: exhibited pericellular labeling

Question: What about the “streptavidin binding signal, hydrogels containing HCC70 cells versus cell-free EHS matrix” value (HCC70 spheroids [1]) of the same molecule?
Answer: 10 fold

Question: Which “labeling of the pericellular zone / intercellular spaces” value (HCC70 spheroids [4]) does the source give for DBCO-sulfo-Biotin here?
Answer: exhibited pericellular labeling

B1: recombinant amphiregulin: recombinant amphiregulin (AREG), EGF receptor family ligand (protein, UniProt P15514 101-187, looked up)
Amphiregulin: SVRVEQVVKPPQNKTESENTSDKPKRKKKGGKNGKNRRNRKKKNPCNAEFQNFCIHGECKYIEHLEAVTCKCQQEYFGERCGEKSMK
modifications: Amphiregulin
notes: recombinant amphiregulin (AREG), EGF receptor family ligand
Question: Which “concentrations at which activity is exhibited” value [6] does the source give for B1 here?
Answer: 5 to 50 ng/mL

Reference: patent US20260200971A1, “METHODS FOR ISOLATING, DETECTING, AND QUANTIFYING INTERCELLULAR PROTEINS” (Fred Hutchinson Cancer Center, priority 2022, published 2026)
